The target of assay [1] is T1, cannabinoid CB1 receptor (Homo sapiens, UniProt P21554).
T1 construct: host or cells: HEK293 CB1 β-arrestin cells
The experiment in a line: PathHunter β-Arrestin assay (allosteric inhibition of agonist Emax). It is filed as cell-based. Particulars: FIG. 1; reduction in Emax not overcome by higher concentrations of agonist. The source says:
PathHunter™ enzyme fragment complementation is the most important method to measure β-arrestin recruitment. PathHunter™ β-Arrestin assays developed by DiscoveRX are revolutionary high-throughput screening assays for monitoring GPCR activation following ligand stimulation, without an imaging instrument, fluorescent protein tag, or radioactivity.
Instead, the assays detect GPCR activation through binding of β-arrestin to the expressed GPCR of interest, and measure the interaction of the two proteins using enzyme fragment complementation (EFC). The EFC approach offers a range of benefits for screening, including signal amplification and robust performance.
The larger portion of β-gal, termed EA for enzyme acceptor, is fused to the C-terminus of β-arrestin. The smaller, complementing fragment of β-gal, the ProLink™ tag, is expressed as a fusion protein with the GPCR of interest at the C-terminus. Upon activation, the GPCR is bound by β-arrestin. The interaction of β-arrestin and the GPCR forces the interaction of ProLink and EA, thus allowing complementation of the two fragments of β-gal and the formation of a functional enzyme capable of hydrolyzing substrate and generating a […] signal.
Using the PathHunter™ CB1 kit from DiscoveRX, a cannabinoid CB1 receptor agonist is added and activates the receptor, EA, which is fused to the C-terminus of β-arrestin, and then interacts with the ProLink™ tag which is fused to the CB1 receptor. This will result in the […] signal that is recorded by a luminescence plate reader. The […] signal is directly related to the activation of the receptor, therefore a higher concentration of agonist will yield a larger […] signal. The cannabinoid agonist is added in increasing concentrations to obtain an agonist dose response curve. With pre-incubation of a potential allosteric modulator, either an enhancement of agonist activity with an allosteric enhancer or a decrease in the maximal response of the agonist with an allosteric inhibitor is expected.
All raw data are obtained as luminescence (relative light units), and are normalised and presented as a percentage of the maximal response for the cannabinoid CB1 receptor agonist CP55,940 (2-[(1R,2R,5R)-5-hydroxy-2-(3-hydroxypropyl)cyclohexyl]-5-(2-methyloctan-2-yl)phenol).
The PathHunter™ β-Arrestin assay (from DiscoveRX, Fremont, USA) was performed as follows. HEK293 CB1 β-arrestin cells were plated 48 hours before use and incubated at 37° C., 5% CO2 in a humidified incubator. Test compounds were dissolved in dimethylsulfoxide (DMSO) and diluted in optimized cell culture (OCC, as supplied by DiscoveRX) media to the required concentrations. 5 μL of test compound or vehicle solution was added to each well and incubated for 60 minutes at 37° C., 5% CO2 in a humidified incubator. 5 μL of increasing concentrations of anandamide was added to each well followed by a 90-minute incubation at 37° C., 5% CO2 in a humidified incubator. 55 μL of detection reagent (as supplied by DiscoveRX) was then added, followed by a further 90 minute incubation at room temperature in the dark. Chemiluminescence, reported in relative light units (RLU—a dimensionless value, standardised as a % of maximum stimulation with anandamide), was measured on a standard luminescence plate reader.
Data were plotted as % of maximal stimulation (Emax) caused by agonist versus the logarithm of concentration of agonist, in the presence or absence of a fixed concentration of test compound (modulator) or vehicle. For example, stimulation in the presence of agonist alone will give a value for stimulation expressed in RLU, which can be expressed as a range from 0% (at lowest agonist concentration, e.g., 1 nM) to 100% (at the highest agonist concentration, e.g., 10 μM). […]

The target in assay [2] is T1, cannabinoid CB1 receptor. The assay is described as above. It is filed as cell-based. Particulars: FIG. 1; agonist CP55,940; calculated by GraphPad Prism; read-out: IC50 for reduction of Emax of CP55,940.
Another assay concerns GluN1KD mice. The assay is described as follows: Open field test in GluN1KD mice and WT littermates. It is filed as in vivo. Conditions: 10 mg/kg; for Locomotor Activity (total distance traveled) / Stereotypy (total stereotypic movements) / Vertical Activity (total): mean±SEM. The source says: Functional NMDARs are composed of a common GluN1 subunit and one of four GluN2 subunits (GluN2A-GluN2D) combined in an undetermined ratio to make the heteromeric receptor complex. Recent studies using post mortem prefrontal cortex samples from patients with SCZ and depression, display a series of changes in NMDAR regulation. Endocannabinoids, via CB1Rs, control the presence of NR1 C1 subunits in the neural membrane which has implications for psychosis and SCZ. […] The GluN1KD (NMDAR hypofunction model) mouse line expresses 5-10% of the normal level of the subunit. GluN1KD mice display behavioural abnormalities that have been related to SCZ; these behaviours are normalized by the antipsychotics haloperidol and clozapine. At the dopamine level, GluN1KD mice have remodelled dopamine neurons, leading to a state of hyperdopaminergia, manifesting as an increase in tonic firing rates of dopaminergic neurons (Ferris et al., 2014).
Adult (>P70) GluN1-knockdown (GluN1KD—F1: C571Bl/6J x 129S1/SvlmJ) and DAT-knockout (DATKO—C57Bl/6J), balanced for sex, were treated with either vehicle (1:1:18-Tween80:95% ethanol:saline) or a novel CB1 negative allosteric modulator (CB1 NAM), ABM300, at 10 mg/kg, was tested in behavioural assays, and compared to littermate controls. Locomotor, stereotypic movements and vertical activity were tested, along with anxiety/mania and sensorimotor gating behaviours. All data were analyzed with two- or three-way ANOVA, as appropriate, and corrected for multiple comparisons.
Classically, locomotor output has been used as a gold standard for the measure of dopamine system dysfunction. The role of dopamine in movement control is well defined and, in its simplest forms, testing for hyperactivity is based on the premise that enhanced dopaminergic activity in rodents leads to enhanced motor activity (van den Buuse et al., 2010). Locomotor, stereotypic and vertical activity was recorded using digital activity monitors, quantifying horizontal and vertical activity, along with repetitive behaviour, via infrared beam breaks. GluN1 KD and DATKO display basal hyperactivity, with increases in stereotypic behaviours which can be ameliorated with antipsychotics (Peleg-Raibstein et al., 2008).

[3] abbreviates: WT (F1: C57Bl/6J x 129S1/SvlmJ) mice, open field.

T1 sequence (P21554 whole entry): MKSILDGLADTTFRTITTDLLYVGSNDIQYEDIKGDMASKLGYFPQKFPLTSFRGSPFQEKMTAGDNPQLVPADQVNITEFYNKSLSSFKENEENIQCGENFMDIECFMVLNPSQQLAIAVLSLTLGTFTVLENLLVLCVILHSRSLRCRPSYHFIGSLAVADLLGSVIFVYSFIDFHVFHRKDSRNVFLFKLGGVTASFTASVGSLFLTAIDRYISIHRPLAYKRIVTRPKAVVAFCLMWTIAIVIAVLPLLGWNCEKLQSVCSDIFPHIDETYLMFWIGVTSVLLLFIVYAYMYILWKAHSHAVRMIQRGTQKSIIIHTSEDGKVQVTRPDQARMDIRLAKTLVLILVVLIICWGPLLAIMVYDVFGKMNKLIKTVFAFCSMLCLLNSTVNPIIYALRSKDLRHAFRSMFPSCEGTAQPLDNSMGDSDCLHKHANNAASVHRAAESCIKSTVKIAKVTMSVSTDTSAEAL

One may read the IC50 as the point on the concentration scale where inhibition reaches its midpoint. On to `CCc1c(-c2nnc(Nc3ccccc3)o2)[nH]c2ccc(Cl)cc12` [ABM300, 5-(5-Chloro-3-ethyl-1H-indol-2-yl)-N-phenyl-1,3,4-oxadiazol-2-amine], for which the type of modulation result at cannabinoid CB1 receptor [1] was “allosteric inhibitor (negative allosteric modulator)”. The IC50 at cannabinoid CB1 receptor [2] is 1 nM. Besides, the “effect on hyperactivity (in words)” value in the assay on GluN1KD mice (GluN1KD mice) is listed as “reduces hyperactivity”. Further, in the assay with GluN1KD mice (GluN1KD mice, open field), the “effect on abnormal stereotypic behaviours (in words)” value was “reduces abnormal stereotypic behaviours”, the “effect on abnormal vertical exploration (risk-taking behaviour) (in words)” value is given as “reduces abnormal vertical exploration”, the “Locomotor Activity (total distance traveled)” value is recorded as 5857 ± 1242 cm and the “Stereotypy (total stereotypic movements)” value came out at 891 ± 93. Moreover, in the assay with GluN1KD mice (GluN1KD mice, open field), the “Vertical Activity (total)” value is 479 ± 142. In the assay on GluN1KD mice (setting [3]), the “Locomotor Activity (total distance traveled)” value was 688 ± 193 cm, the “Stereotypy (total stereotypic movements)” value is reported as 298.80 ± 45 and the “Vertical Activity (total)” value came out at 43.91 ± 26.
